Source: ChEMBL document CHEMBL1201862, “PubChem BioAssay data set” (2004)
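A five-concentration, 48-hour dose response in 96-well plates underlies each endpoint, interpolated linearly between surrounding concentrations. The concentration for 50% growth inhibition is given as GI50.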 Activity calls are given as the source filed them. Rule as the data show it: active = GI50 up to about 1.1 µM and inactive = higher.

Legend:
Test in all cases: NCI anticancer screen, dose series, 48 h
HL-60 = tested on: HL-60
MCF7 = tested on: MCF7
SK-MEL-28 = tested on: SK-MEL-28
SF-539 = tested on: SF-539
SF-268 = tested on: SF-268
OVCAR-8 = tested on: OVCAR-8
Malme-3M = tested on: Malme-3M
IGROV-1 = tested on: IGROV-1
SK-OV-3 = tested on: SK-OV-3
M14 = tested on: M14
NCI-H226 = tested on: NCI-H226
COLO 205 = tested on: COLO 205
NCI-H23 = tested on: NCI-H23
HCT-116 = tested on: HCT-116
SNB-75 = tested on: SNB-75
SR = tested on: SR
ACHN = tested on: ACHN
OVCAR-4 = tested on: OVCAR-4
NCI-H460 = tested on: NCI-H460
UO-31 = tested on: UO-31

Measured: GI50

COc1ccc(C(=O)c2c(-c3ccccc3NC(=O)C(F)(F)F)[nH]c3ccccc23)cc1
inactive: HL-60 2.42 µM | MCF7 1.74 µM | SK-MEL-28 13.6 µM | SF-539 1.94 µM | SF-268 12.8 µM | OVCAR-8 6.19 µM | Malme-3M 14.4 µM | IGROV-1 10.6 µM | SK-OV-3 14.6 µM | M14 14.3 µM | NCI-H226 14.7 µM | COLO 205 4.05 µM | NCI-H23 11.7 µM | HCT-116 12.2 µM | SNB-75 2.47 µM | SR 2.81 µM | ACHN 3.16 µM | OVCAR-4 4.59 µM | NCI-H460 4.26 µM | UO-31 5.05 µM

Cn1cnc(/C=C/C#N)c1
inactive: MCF7 > 100 µM | SK-MEL-28 > 100 µM | SF-539 > 100 µM | SF-268 > 100 µM | OVCAR-8 > 100 µM | Malme-3M > 100 µM | IGROV-1 > 100 µM | SK-OV-3 > 100 µM | M14 > 100 µM | NCI-H226 76.7 µM | COLO 205 > 100 µM | NCI-H23 > 100 µM | SNB-75 > 100 µM | SR > 100 µM | ACHN > 100 µM | OVCAR-4 > 100 µM | NCI-H460 > 100 µM | UO-31 > 100 µM

CC(C)(C)c1cc(C(P(=O)(c2ccccc2)c2ccccc2)P(=O)(c2ccccc2)c2ccccc2)cc(C(C)(C)C)c1O
inactive: HL-60 3.03 µM | MCF7 2.28 µM | SK-MEL-28 1.95 µM | SF-539 2.25 µM | SF-268 2.93 µM | OVCAR-8 2.44 µM | Malme-3M 2.47 µM | IGROV-1 3.12 µM | SK-OV-3 3.11 µM | M14 1.75 µM | NCI-H226 3.44 µM | COLO 205 1.87 µM | NCI-H23 2.84 µM | HCT-116 1.58 µM | SNB-75 2.71 µM | SR 2.28 µM | ACHN 3.18 µM | OVCAR-4 3.35 µM | NCI-H460 2.11 µM | UO-31 2.24 µM

O=C(CCCN1CCC2(CC1)NC(=O)c1ccccc1O2)c1ccc(F)cc1
inactive: HL-60 85.3 µM | MCF7 94.6 µM | SK-MEL-28 > 100 µM | SF-539 > 100 µM | SF-268 > 100 µM | OVCAR-8 > 100 µM | Malme-3M 70.6 µM | IGROV-1 > 100 µM | SK-OV-3 > 100 µM | M14 87.7 µM | NCI-H226 > 100 µM | COLO 205 50.1 µM | NCI-H23 > 100 µM | HCT-116 > 100 µM | SNB-75 > 100 µM | SR 57 µM | ACHN > 100 µM | OVCAR-4 91 µM | NCI-H460 > 100 µM | UO-31 73.5 µM

CC1(C23CC4CC(CC(C4)C2)C3)n2c(=O)n(-c3ccccc3)c(=O)n2C1(C)C12CC3CC(CC(C3)C1)C2 (stereo not given)
inactive: HL-60 > 100 µM | MCF7 > 100 µM | SK-MEL-28 > 100 µM | SF-539 > 100 µM | SF-268 > 100 µM | OVCAR-8 > 100 µM | IGROV-1 > 100 µM | SK-OV-3 > 100 µM | M14 > 100 µM | NCI-H226 > 100 µM | COLO 205 > 100 µM | NCI-H23 > 100 µM | SNB-75 74.1 µM | SR > 100 µM | ACHN > 100 µM | NCI-H460 > 100 µM | UO-31 > 100 µM

CCOC(=O)C(NC(C)=O)(Nc1ccc(F)cc1)C(F)(F)F (stereo not given)
inactive: HL-60 4.79 µM | MCF7 28.2 µM | SK-MEL-28 > 100 µM | SF-539 > 100 µM | SF-268 > 100 µM | OVCAR-8 > 100 µM | IGROV-1 90.8 µM | SK-OV-3 > 100 µM | M14 20.2 µM | COLO 205 > 100 µM | NCI-H23 > 100 µM | HCT-116 13.4 µM | SNB-75 > 100 µM | SR 24.8 µM | ACHN 2.62 µM | OVCAR-4 88.1 µM | NCI-H460 7.21 µM | UO-31 34.8 µM

C=CC12CN(C)C3C4COC(CC41)C1(C(=O)Nc4ccccc41)C32 (stereo not given)
inactive: HL-60 152 µM | MCF7 > 200 µM | SK-MEL-28 175 µM | SF-539 > 200 µM | SF-268 173 µM | OVCAR-8 > 200 µM | Malme-3M 174 µM | IGROV-1 > 200 µM | SK-OV-3 > 20 µM | NCI-H226 6.67 µM | COLO 205 > 149 µM | NCI-H23 > 173 µM | HCT-116 158 µM | SNB-75 146 µM | OVCAR-4 > 200 µM | NCI-H460 166 µM | UO-31 > 181 µM

O=c1c(Cc2ccc(Cc3c(O)oc4ccccc4c3=O)cc2)c(O)oc2ccccc12
inactive: HL-60 > 100 µM | MCF7 > 100 µM | SK-MEL-28 > 100 µM | SF-539 > 100 µM | SF-268 > 100 µM | OVCAR-8 > 100 µM | Malme-3M > 100 µM | IGROV-1 > 100 µM | SK-OV-3 > 100 µM | M14 > 100 µM | NCI-H226 > 100 µM | COLO 205 > 100 µM | NCI-H23 > 100 µM | HCT-116 > 100 µM | SNB-75 > 100 µM | SR > 100 µM | OVCAR-4 > 100 µM | NCI-H460 > 100 µM | UO-31 42 µM

COC(=O)C1=C(O)C(C(=O)OC)[C@@]2(O)[C@@H](C(=O)OC)CC[C@@H]1[C@@H]2C(=O)OC (stereo not given in full)
inactive: HL-60 23.3 µM | MCF7 35.6 µM | SK-MEL-28 27.9 µM | SF-539 18.6 µM | SF-268 29.4 µM | Malme-3M 21.5 µM | SK-OV-3 19.2 µM | M14 22.6 µM | NCI-H226 20.1 µM | NCI-H23 17.8 µM | HCT-116 30.4 µM | SNB-75 17.9 µM | SR 14.9 µM | ACHN 39.2 µM | NCI-H460 16.1 µM | UO-31 29.2 µM
